Values quoted from earlier work, collected in paper PMC3918212 (Biopolymers, 2013).

Conditions: PBS at 37 °C

For MATLEKLMKAFESLKSF [htt^NT], the “Aggregation behaviour on incubation” value is given as “slow, concentration dependent conversion into an α-helix rich, sedimentable oligomer”.
